The test system of experiment [1] is GlcCer, GlcSo, GalCer, GalSo levels in the brain. In words: Sphingolipid analysis (LC-ESI-MS/MS) of brains of treated mice. Type of experiment: in vivo, mouse. The conditions noted are these: P18. How it is done:
Sphingolipid analysis—LC-ESI-MS/MS was performed using an ABI 4000 quadrupole-linear ion trap mass spectrometer as previously described (Farfel-Becker et al. Hum Mol Genet. 2014; 23(4):843-54). The sphingolipid internal standards were obtained from Avanti Polar Lipids (Alabaster, Ala., USA).
In the next step, the consequences of GBA1 inhibition, GlcCer accumulation, was analyzed. As expected, CBE-treated mice presented higher levels of GlcCer in the brain in comparison to the controls. The average elevation in GlcCer levels in CBE-treated brains was 3.7-fold compared to PBS-treated mice (FIG. 3C). C18, the most abundant GlcCer species in the brain, was the main GlcCer species elevated (not shown). Importantly, there was no correlation between the levels of GlcCer in the brain and life spans either in the PBS(R^2=0.1441, data not shown) or CBE conditions (R^2=0.0569, FIG. 3C). There was also no correlation between the change in GlcCer levels in each strain and the life spans (R^2=0.0311, data not shown). In addition, no correlation was found between each individual GlcCer subspecies (C14, C16, C18:1, C18, C20, C22, C24:1, C24, C26:1, and C26) and life spans under PBS and CBE conditions (data not shown).
Glucosylsphingosine (GlcSo) is another lipid known to be elevated in GD and it has been proposed as a GD biomarker (Rolfs et al. PLoS One. 2013 Nov. 20; 8(11):e79732). An average elevation of ˜36-fold in GlcSo levels was found in the CBE-treated brains as compared to the controls (FIG. 3D). The potential correlation between GlcSo levels and the life spans of mice was explored—no correlation was found either under PBS(R^2=0.068, data not shown), or in the CBE-treated brains (R^2=0.0013, FIG. 3D). Similarly to the other lipids, there was no correlation between the change in GlcSo levels and mice life spans (R^2=0.0775, data not shown).
In addition, GalCer and GalSo levels were analyzed in the brains of the treated mice (FIGS. 3E-3F).

The next experiment concerns the target T1, GBA1 (Mus musculus, UniProt P17439).
T1 construct: from tissue; host or cells: mouse brain (frozen half-brain homogenate) of inbred strains treated in vivo with PBS, CBE or CBE plus memantine
T1 sequence (P17439 20-515): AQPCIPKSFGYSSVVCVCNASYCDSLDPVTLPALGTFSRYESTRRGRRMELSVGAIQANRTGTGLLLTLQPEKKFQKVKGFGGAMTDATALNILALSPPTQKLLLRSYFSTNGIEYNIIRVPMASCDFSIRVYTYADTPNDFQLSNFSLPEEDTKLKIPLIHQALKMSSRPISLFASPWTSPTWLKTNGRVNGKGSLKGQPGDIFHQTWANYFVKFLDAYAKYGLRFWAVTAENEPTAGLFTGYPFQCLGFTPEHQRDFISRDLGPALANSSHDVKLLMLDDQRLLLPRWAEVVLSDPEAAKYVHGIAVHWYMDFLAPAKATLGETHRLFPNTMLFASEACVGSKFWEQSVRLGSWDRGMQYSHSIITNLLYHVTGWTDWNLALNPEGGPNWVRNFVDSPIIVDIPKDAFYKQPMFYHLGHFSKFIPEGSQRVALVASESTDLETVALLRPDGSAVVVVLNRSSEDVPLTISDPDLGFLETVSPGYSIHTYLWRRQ
The experiment can be described thus: GBA1 activity assay in brain homogenates of treated mice. In kind it is in vivo. The conditions noted are these: mice treated for 10 days with CBE vs PBS; all strains tested; brains harvested P18. How it is done:
GBA1 activity assay—GBA1 activity was performed as previously described (Farfel-Becker et al. Hum Mol Genet. 2014; 23(4):843-54). Briefly, frozen half-brain samples were sonicated in Mcllvaine's buffer (0.1 M citric acid, pH 4.2, 0.2 M Na2HPO4, 29:21, vol:vol). Tissue homogenates containing 50 μg of protein were incubated at 37° C. with 8 μM C6-NBD-GlcCer (Avanti Polar Lipids, Alabaster, Ala., USA) in a final volume of 25 μl Mcllvaine's buffer for 30 minutes. Lipids were extracted and the lower phase separated by thin layer chromatography using chloroform:methanol:9.8 mM CaCl2 (60:35:8, vol:vol:vol) as the developing solvent. C6-NBD-ceramide was identified with an authentic standard using a Typhoon 9410 variable mode imager and bands were quantified by Image-QuantTL (GE Healthcare, Chalfont St Giles, UK).
To eliminate the possibility that the phenotypic differences observed in the different mouse strains were caused by differential CBE metabolism in the brain, GBA1 enzymatic activity in mice treated for 10 days with CBE or PBS (control) was measured. […] Overall, the remaining GBA1 activity was 5-10% of the controls (FIG. 3A). There was no correlation between GBA1 activity in the brain and life spans neither in the PBS(R^2=0.126, data not shown) nor CBE conditions (R^2=0.0581, FIG. 3B). In addition, no correlation was found between inhibition of GBA1 activity and life span when evaluated according to strains (R^2=0.0085, data not shown).

`O[C@H]1[C@H](O)[C@@H](O)[C@@H]2O[C@@H]2[C@@H]1O` [CBE, Conduritol-β-epoxide]: in experiment [1] (CBE-treated brains compared to PBS-treated mice), the “average elevation in GlcCer levels in the brain” value was determined as 3.7 fold. Further, the “average elevation in GlcSo levels in the brain” value in experiment [1] (CBE-treated brains compared to controls) was ~36 fold. Moreover, in experiment [1] (CBE-treated mice vs PBS), the “GalCer levels in the brain” value is recorded as “no elevation” and the “GalSo levels in the brain” value was “no elevation”. Further, on GBA1, the “remaining cerebral GBA1 activity” value is recorded as 5-10 % of the controls.

Source of the values: US20170273917A1, “NMDA RECEPTOR ANTAGONISTS FOR TREATING GAUCHER DISEASE” (Yeda Research and Development Co. Ltd., priority 2014, published 2017).
